{
  "source": "patent US12440493B2",
  "about": "“Combination therapy for treating cancer comprising substituted piperazines” (Eli Lilly and Company, priority 2020, dated 2025)",
  "key": {"[1]": {"test_system": "IDH1(R132H) primary human AML cells", "test": "AML clearance in peripheral blood (flow cytometry, % hCD33+hCD45+ of total white cells), human AML PDx models in NSG mice", "assay_type": "in vivo", "conditions": "for AML clearance (% hCD33 + hCD45+ (of total white cells)): QD, PO, each value one animal", "experimental": "(§1) Compounds and Formulation. For in vivo studies, each test article is prepared at an appropriate concentration with vehicle. […] Compound A is prepared fresh at the appropriate concentrations with vehicle every 7 days and stored at 4° C. between doses. […] Cytarabine is prepared fresh weekly by dilution with sterile saline from stock solution of Cytarabine (injection 20 mg/mL, (Pfizer injectables')). Azacitidine (Sigma, Lot #MKBR7212) is formulated in sterile water and is prepared fresh daily immediately before dosing. In vivo human AML PDx models. […] Two models are used in the studies: […] As needed, splenocytes from tumor-bearing mice are used to propagate and expand the models, as described. Each test article is prepared as described above at an appropriate concentration with vehicle to give animals the doses tested in this study at a dosing volume of 10 μL/gram body weight. Mice receiving Compound A (PO, QD) are treated at the indicated doses for the duration of the study. The combination agents are dosed as follows: […] Treated mice are assessed in comparison to vehicle treated and naïve (non-tumor bearing) control mice. Body weight is recorded twice per week. […] AML PDx model propagation. […] Spleens are processed and splenocytes isolated as described below. Two hundred μL per subject of the splenocyte prep is injected IV (intravenous, tail vein) into recipient NSG mice. […] Once engraftment is confirmed, the mice are monitored biweekly until ready to be put on study. […] Submandibular blood is collected. Spleen/Splenocyte Processing and Prep. After excision, a spleen is weighed, and […] is placed in a standard sterile 15 mL polypropylene conical tube containing PBS, and placed on ice. […] The spleen is placed in ice cold sterile PBS in a 15 mL collection tube. The spleen is removed from the collection tube and placed in a 100 micron 50 mL conical tube cell strainer (BD Falcon #352360). The spleen is processed by gentle rubbing of the spleen tissue against the surface of the cell strainer with the end of a 5 mL syringe plunger in a circular motion. The surface of the strainer is rinsed with 10 mL room temperature sterile DPBS (HyClone SH30028) 3 times during the process. […] The cell pellet is collected by centrifugation (300×g) and washed three times with 30 mL sterile DPBS. The cells are counted and resuspended in DPBS at the desired implant concentration. Bone Marrow Collection. […] Flow cytometry analysis of human white cells. Submandibular blood samples from in vivo studies are collected. Fluor-conjugated antibody stains are added according to the manufacturer's instructions (anti-human CD33-PE (clone WM53, BD Cat #555450), anti-human CD14-APC (clone MφpP9, BD Cat #340436), anti-human CD15-V450 (clone HI98, BD Cat #561584), anti-human CD117-BV421 (clone YB5.B8, BD Cat #562434), anti-human […]7 (clone ICRF44, BD Cat #557754), anti-human […]7 (clone HI30, BD Cat #557748), and anti-human CD3-FITC (clone SK7, BD Cat #340542)). The samples are incubated for 30 minutes at room temperature, protected from light. After the incubation, 1.5 mL 1×BD Lyse/Fix (37° C., (BD #558049)) is added to each sample and incubated for 12 minutes at room temperature. The tubes are centrifuged at 300×g for 7 minutes. BD Lyse/Fix solution is aspirated and the cell pellet washed with stain/wash buffer 3 times (1 wash step consisted of: pellet resuspended in 3 mL stain/wash buffer, centrifuged at 300×g, aspirated wash). Fixed cells are then resuspended in 300 to 400 μL stain/wash buffer. Samples are analyzed on a Becton Dickinson FACSVerse Flow cytometer (Cat #651155 Serial #Z6511550447) using standard flow cytometry principles and techniques. Samples are analyzed on the same day as they are stained and fixed. Population gating and data analysis of percent population are performed in the FACSuite software on the FACSVerse cytometer. Percent population values from the data analysis are plotted in Graphpad Prism or in JMP13. […]"}, "[2]": {"test_system": "IDH1(R132H) primary human AML cells", "test": "AML cell differentiation in blood (flow cytometry, % hCD33+hCD11b+ of hCD45+ cells), human AML PDx models in NSG mice", "assay_type": "in vivo", "conditions": "for AML cell differentiation (% hCD33 + hCD11b+ (of hCD45+ cells)): QD, PO", "experimental": "as §1"}},
  "note": "“And” between values parts separate entries of the source, which are not always exact repeats. Identical values can stand only once.",
  "data": [
    {"smiles": "C=CC(=O)N1CCN([C@@H](CC2CC2)c2ccc([C@H](C)Nc3ncc4c(n3)N(CC)C(=O)OC4)cc2)CC1", "note": "[Compound A, 7-[[(1S)-1-[4-[(1S)-2-cyclopropyl-1-(4-prop-2-enoylpiperazin-1-yl)ethyl]phenyl]ethyl]amino]-1-ethyl-4H-pyrimido[4,5-d][1,3]oxazin-2-one]", "values": [
      {"measurement": "AML clearance (% hCD33 + hCD45+ (of total white cells))", "setting": "[1]; Treatment day −8, 10 mg/kg Compound A, 10 mg/kg", "result": "2.43% and 7.61% and 4.1% and 6.27% and 6.53%"},
      {"measurement": "AML clearance (% hCD33 + hCD45+ (of total white cells))", "setting": "[1]; Treatment day −19, 3.3 mg/kg Compound A, Table 2A, 3.3 mg/kg", "result": "6.86% and 3.77% and 4.41% and 2.93% and 5.26% and 4.84% and 2.39%"},
      {"measurement": "% peripheral blood AML cells (treatment group value)", "setting": "[1]; day 43, group B: Compound A (3.3 mg/kg), azacitidine study, vehicle 71%", "result": 52, "unit": "%"},
      {"measurement": "% peripheral blood AML cells (treatment group value)", "setting": "[1]; day 47, group B: Compound A (3.3 mg/kg), cytarabine study, vehicle 86%", "result": 39, "unit": "%"},
      {"measurement": "% peripheral blood AML cells (treatment group value)", "setting": "[1]; day 50, group B: 1 mg Compound A, vehicle 32%", "result": 37, "unit": "%"},
      {"measurement": "% peripheral blood AML cells (treatment group value)", "setting": "[1]; day 50, group C: 10 mg Compound A, vehicle 32%", "result": 2.8, "unit": "%"},
      {"measurement": "% peripheral blood AML cells (treatment group value)", "setting": "[1]; day 64, group B: 1 mg Compound A, vehicle 67%", "result": 51, "unit": "%"},
      {"measurement": "% peripheral blood AML cells (treatment group value)", "setting": "[1]; day 64, group C: 10 mg Compound A, vehicle 67%", "result": 1.1, "unit": "%"},
      {"measurement": "% peripheral blood AML cells (treatment group value)", "setting": "[1]; day 78, group B: 1 mg Compound A, vehicle 129%", "result": 65, "unit": "%"},
      {"measurement": "% peripheral blood AML cells (treatment group value)", "setting": "[1]; day 78, group C: 10 mg Compound A, vehicle 129%", "result": 0.66, "unit": "%"},
      {"measurement": "AML cell differentiation (% hCD33 + hCD11b+ (of hCD45+ cells))", "setting": "[2]; B: 1 mg/kg Compound A, treatment day −8 (before treatment), one animal", "result": "19.01% and 16.75%"},
      {"measurement": "AML cell differentiation (% hCD33 + hCD11b+ (of hCD45+ cells))", "setting": "[2]; Treatment day 2, 3.3 mg/kg Compound A, Table 2B, each value one animal, 3.3 mg/kg", "result": "14.12% and 16.05% and 13.27% and 10.34% and 11.59% and 13.32% and 14.01%"},
      {"measurement": "AML cell differentiation (% hCD33 + hCD11b+ (of hCD45+ cells))", "setting": "[2]; Treatment day 15, 3.3 mg/kg Compound A, Table 2B, each value one animal, 3.3 mg/kg", "result": "33.42% and 27.78% and 36.01% and 28.02% and 28.21% and 29.24% and 33.82%"},
      {"measurement": "AML cell differentiation (% hCD33 + hCD11b+ (of hCD45+ cells))", "setting": "[2]; Treatment day 18, 3.3 mg/kg Compound A, each value one animal, 3.3 mg/kg", "result": "23.96% and 27.78% and 22.27% and 22.38% and 22.41% and 29.38% and 24.62%"},
      {"measurement": "AML cell differentiation (% hCD33 + hCD11b+ (of hCD45+ cells))", "setting": "[2]; Treatment day 28, 3.3 mg/kg Compound A, Table 2B, each value one animal, 3.3 mg/kg", "result": "35.79% and 36.46% and 33.59% and 39.91% and 37.16% and 40.47%"},
      {"measurement": "AML cell differentiation (% hCD33 + hCD11b+ (of hCD45+ cells))", "setting": "[2]; Treatment day 34, 3.3 mg/kg Compound A, each value one animal, 3.3 mg/kg", "result": "30.68% and 27.59% and 29.94% and 25.81% and 29.79% and 34.39% and 29.26%"},
      {"measurement": "AML cell differentiation (% hCD33 + hCD11b+ (of hCD45+ cells))", "setting": "[2]; Treatment day 43, 3.3 mg/kg Compound A, Table 2B, each value one animal, 3.3 mg/kg", "result": "37.51% and 35.22% and 33.33% and 36.61% and 41.32% and 33.68% and 39.34%"},
      {"measurement": "AML cell differentiation (% hCD33 + hCD11b+ (of hCD45+ cells))", "setting": "[2]; Treatment day 47, 3.3 mg/kg Compound A, each value one animal, 3.3 mg/kg", "result": "37.61% and 35.31% and 38.58% and 39.61% and 31.81% and 41.02% and 35.79%"},
      {"measurement": "AML cell differentiation (% hCD33 + hCD11b+ (of hCD45+ cells))", "setting": "[2]; Treatment day 58, 3.3 mg/kg Compound A, Table 2B, each value one animal, 3.3 mg/kg", "result": "42.9% and 44.03% and 33.47% and 48.08% and 47.13% and 40.2% and 26.62%"},
      {"measurement": "AML cell differentiation (% hCD33 + hCD11b+ (of hCD45+ cells))", "setting": "[2]; Treatment day 61, 3.3 mg/kg Compound A, each value one animal, 3.3 mg/kg", "result": "37.61% and 40.23% and 40.06% and 33.82% and 32.55% and 43.95% and 44%"},
      {"measurement": "AML cell differentiation (% hCD33 + hCD11b+ (of hCD45+ cells))", "setting": "[2]; Treatment day 75, 3.3 mg/kg Compound A, each value one animal, 3.3 mg/kg", "result": "33.98% and 35.9% and 31.38% and 37.53% and 34.66% and 51.92%"},
      {"measurement": "AML cell differentiation (% hCD33 + hCD11b+ (of hCD45+ cells))", "setting": "[2]; Treatment day 77, 3.3 mg/kg Compound A, Table 2B, each value one animal, 3.3 mg/kg", "result": "56.29% and 46.83% and 42.98% and 48.3% and 51.69% and 48.56%"},
      {"measurement": "AML cell differentiation (% hCD33 + hCD11b+ (of hCD45+ cells))", "setting": "[2]; Treatment day 89, 3.3 mg/kg Compound A, each value one animal, 3.3 mg/kg", "result": "21.32% and 43.96% and 40.34% and 28.57% and 37.17% and 45.68%"},
      {"measurement": "AML cell differentiation (% hCD33 + hCD11b+ (of hCD45+ cells))", "setting": "[2]; Treatment day 98, 3.3 mg/kg Compound A, Table 2B, each value one animal, 3.3 mg/kg", "result": "44.09% and 47.66% and 33.67% and 36.45% and 33.6%"},
      {"measurement": "AML cell differentiation (% hCD33 + hCD11b+ (of hCD45+ cells))", "setting": "[2]; Treatment day −3, 3.3 mg/kg Compound A, each value one animal, 3.3 mg/kg", "result": "11.93% and 12% and 13.59% and 13.22% and 11.07% and 13.07%"},
      {"measurement": "AML cell differentiation (% hCD33 + hCD11b+ (of hCD45+ cells))", "setting": "[2]; Treatment day −19, 3.3 mg/kg Compound A, Table 2B, each value one animal, 3.3 mg/kg", "result": "1.45% and 2.19% and 0.38% and 2.21% and 0.64% and 0.34% and 0.68%"},
      {"measurement": "% AML cell differentiation (treatment group value)", "setting": "[2]; day 43, group B: Compound A (3.3 mg/kg), azacitidine study, vehicle 15%", "result": 37, "unit": "%"},
      {"measurement": "% AML cell differentiation (treatment group value)", "setting": "[2]; day 47, group B: Compound A (3.3 mg/kg), cytarabine study, vehicle 10%", "result": 37, "unit": "%"},
      {"measurement": "% AML cell differentiation (treatment group value)", "setting": "[2]; day 50, group B: 1 mg Compound A, vehicle 28%", "result": 43, "unit": "%"},
      {"measurement": "% AML cell differentiation (treatment group value)", "setting": "[2]; day 50, group C: 10 mg Compound A, vehicle 28%", "result": 79, "unit": "%"}
    ]}
  ]
}
